From US9290451B2 (Hoffmann-La Roche Inc., priority 2011, dated 2016)
Where two headings read alike, the source gives them in different places.

What was measured:
human CB2 receptors = human CB2 receptors (Homo sapiens (Human), UniProt P34972); experiment: cAMP assay, CHO cells expressing human CB2 receptors; assay type: cell-based
Procedure, shortened: (§1)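 EC50 values come from a TR-FRET cAMP read-out (standard curve 10 μM–0.13 nM cAMP) after 30 min compound exposure at 30 °C in IBMX (1 mM)-containing Krebs Ringer bicarbonate buffer, using CHO cells carrying human CB1 or CB2 receptors.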

human CB1 receptors = human CB1 receptors (Homo sapiens (Human), UniProt P21554); experiment: cAMP assay, CHO cells expressing human CB1 receptors; assay type: cell-based
Procedure, shortened: as §1

[1] = CHO cells expressing human CB2, cAMP, read-out: human CB2 EC50
[2] = CHO cells expressing human CB1, cAMP, read-out: human CB1 EC50

Chain of human CB1 receptors (P21554 whole entry): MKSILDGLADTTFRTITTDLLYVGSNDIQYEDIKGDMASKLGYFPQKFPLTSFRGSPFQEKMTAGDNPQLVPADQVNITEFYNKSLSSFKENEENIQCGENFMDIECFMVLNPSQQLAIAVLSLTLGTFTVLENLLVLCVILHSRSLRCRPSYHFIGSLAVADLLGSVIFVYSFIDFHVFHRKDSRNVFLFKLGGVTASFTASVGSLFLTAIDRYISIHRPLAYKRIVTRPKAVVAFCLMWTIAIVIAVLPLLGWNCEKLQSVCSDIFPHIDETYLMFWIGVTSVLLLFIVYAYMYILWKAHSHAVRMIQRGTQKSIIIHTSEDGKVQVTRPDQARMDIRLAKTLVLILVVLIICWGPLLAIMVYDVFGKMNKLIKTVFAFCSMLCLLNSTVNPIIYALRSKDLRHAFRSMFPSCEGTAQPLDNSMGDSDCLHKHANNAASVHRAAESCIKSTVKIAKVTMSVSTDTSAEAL
Chain of human CB2 receptors (P34972 whole entry): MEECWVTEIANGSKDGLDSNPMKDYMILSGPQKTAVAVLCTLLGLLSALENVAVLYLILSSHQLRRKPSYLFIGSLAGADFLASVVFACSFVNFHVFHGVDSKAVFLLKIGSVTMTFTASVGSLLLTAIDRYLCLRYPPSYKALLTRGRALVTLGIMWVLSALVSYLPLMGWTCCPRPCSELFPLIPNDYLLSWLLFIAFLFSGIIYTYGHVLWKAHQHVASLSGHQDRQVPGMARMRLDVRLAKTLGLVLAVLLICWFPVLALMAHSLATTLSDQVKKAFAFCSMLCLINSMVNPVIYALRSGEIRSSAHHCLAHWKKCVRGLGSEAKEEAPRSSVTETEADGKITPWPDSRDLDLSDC

SMILES | EC50 (human CB2 receptors; [1]) | EC50 (human CB1 receptors; [2]) | EC50 (human CB2 receptors) | EC50 (human CB1 receptors)
CNC(=O)[C@H](CC(C)C)NC(=O)c1cccc(-c2ccccc2)n1 [Example 205, (S)-N-(4-Methyl-1-(methylamino)-1-oxopentan-2-yl)-6-phenylpicolinamide] | 57.8 nM | > 10000 nM |  | 
COC(=O)C(C)(C)NC(=O)c1ccc(-c2cc[nH]n2)c(OCC2CC2)n1 [Example 13, 2-{[6-Cyclopropylmethoxy-5-(1H-pyrazol-3-yl)-pyridine-2-carbonyl]-amino}-2-methyl-propionic acid methyl ester] | 426 nM | > 10000 nM |  | 
NC(=O)[C@H](CC1CC1)NC(=O)c1ccc(C2CC2)c(-c2cccc(Cl)c2)n1 [Example 97, 6-(3-Chloro-phenyl)-5-cyclopropyl-pyridine-2-carboxylic acid ((S)-1-carbamoyl-2-cyclopropyl-ethyl)-amide] | 508 nM | > 10000 nM |  | 
Cc1nc(C(C)(C)NC(=O)c2ccc3c(n2)CC(C)(C)CC3)no1 [Example 144, 7,7-dimethyl-N-(2-(5-methyl-1,2,4-oxadiazol-3-yl)propan-2-yl)-5,6,7,8-tetrahydroquinoline-2-carboxamide] | 22.8 nM | 739 nM |  | 
CCC(CC)(NC(=O)c1ccc(C(F)(F)F)c(OCC2CC2)n1)C(=O)O [Example 252, 2-[(6-Cyclopropylmethoxy-5-trifluoromethyl-pyridine-2-carbonyl)-amino]-2-ethyl-butyric acid] | 552 nM | > 10000 nM |  | 
CC(C)(CO)NC(=O)c1ccc(C2CCOC2)c(OCC2CC2)n1 (centres unmarked) [Example 141, 6-Cyclopropylmethoxy-5-(tetrahydro-furan-3-yl)-pyridine-2-carboxylic acid (2-hydroxy-1,1-dimethyl-ethyl)-amide] | 459 nM | > 10000 nM |  | 
CC(C)(O)[C@H](CC1CC1)NC(=O)c1ccc(N2CC(F)(F)C2)c(OCC2CC2)n1 [Example 135, 6-Cyclopropylmethoxy-5-(3,3-difluoro-azetidin-1-yl)-pyridine-2-carboxylic acid ((S)-1-cyclopropylmethyl-2-hydroxy-2-methyl-propyl)-amide] | 38.2 nM | > 10000 nM |  | 
O=C(N[C@H](c1cccnc1)C(F)(F)F)c1ccc(C2CC2)c(OCC2CC2)n1 [Example 218, (R)-5-Cyclopropyl-6-(cyclopropylmethoxy)-N-(2,2,2-trifluoro-1-(pyridin-3-yl)ethyl)-picolinamide] | 24.1 nM | > 10000 nM |  | 
CC(C)(NC(=O)c1ccc(C(F)(F)F)c(OCC2CC2)n1)c1nccs1 [Example 121, 6-Cyclopropylmethoxy-5-trifluoromethyl-pyridine-2-carboxylic acid (1-methyl-1-thiazol-2-yl-ethyl)-amide] | 111 nM | 1350 nM |  | 
CC(C)C[C@H](NC(=O)c1ccc(C2CC2)c(OC(C)C(F)(F)F)n1)C(N)=O (stereo partly drawn) [Example 372, 5-Cyclopropyl-6-(2,2,2-trifluoro-1-methyl-ethoxy)-pyridine-2-carboxylic acid ((S)-1-carbamoyl-3-methyl-butyl)-amide] |  |  | 53.4 nM | > 10000 nM
COCCOCC(C)(C)NC(=O)c1ccc(N2CC(F)(F)C2)c(-c2cccc(Cl)c2)n1 [Example 152, 6-(3-Chloro-phenyl)-5-(3,3-difluoro-azetidin-1-yl)-pyridine-2-carboxylic acid [2-(2-methoxy-ethoxy)-1,1-dimethyl-ethyl]-amide] | 442 nM | > 10000 nM |  | 
Cc1ccc(C(=O)NC(C)(C)c2ncco2)nc1-c1cccc(Cl)c1 [Example 49, 6-(3-Chloro-phenyl)-5-methyl-pyridine-2-carboxylic acid (1-methyl-1-oxazol-2-yl-ethyl)-amide] | 308 nM | > 10000 nM |  | 
O=C(N[C@@H](CC1CC1)c1nccs1)c1ccc(C2CC2)c(OCC2CC2)n1 [Example 99, 5-Cyclopropyl-6-cyclopropylmethoxy-pyridine-2-carboxylic acid ((S)-2-cyclopropyl-1-thiazol-2-yl-ethyl)-amide] | 59.7 nM | > 10000 nM |  | 
